Positions of bridges follow the written chain, without caps; N, C: chain ends. Non-standard residues stand in square brackets, D forms with d. Residues, ends and D or L forms follow the SMILES beside them. Groups on a side chain read outwards from the residue. *: point of attachment. Acetyl(2-S-cholesteryl) = CC(C)CCC[C@@H](C)[C@H]1CC[C@H]2[C@@H]3CC=C4C[C@@H](SCC(=O)*)CC[C@]4(C)[C@H]3CC[C@]12C; PEG16 = NCCOCCOCCOCCOCCOCCOCCOCCOCCOCCOCCOCCOCCOCCOCCOCCOCCC(=O)O; R8 = C=CCCCCCC[C@@](C)(N)C(=O)O; S5 = C=CCCC[C@](C)(N)C(=O)O
Experiments:
[1] = tested on: GFP-RSV live virus (RSV A2)

In the case of `CC[C@H](C)[C@H](NC(=O)[C@H](CO)NC(=O)[C@H](C)NC(=O)[C@H](CC(=O)O)NC(=O)[C@H](Cc1ccccc1)NC(C)=O)C(=O)N[C@@H](CO)C(=O)N[C@@H](CCC(N)=O)C(=O)N[C@H](C(=O)N[C@@H](CC(N)=O)C(=O)N[C@@H](CCC(=O)O)C(=O)N[C@@H](CCCCN)C(=O)N[C@H](C(=O)N[C@@H](CC(N)=O)C(=O)N[C@@H](CCC(N)=O)C(=O)N[C@@H](CO)C(=O)N[C@@H](CC(C)C)C(=O)N[C@]1(C)CCCCCCC=CCCC[C@@](C)(C(=O)N[C@@H](CC(C)C)C(=O)N[C@@H](CC(C)C)C(=O)N[C@@H](Cc2c[nH]cn2)C(=O)N[C@@H](CC(N)=O)C(=O)N[C@H](C(=O)N[C@@H](CCCCNC(=O)CCOCCOCCOCCOCCOCCOCCOCCOCCOCCOCCOCCOCCOCCOCCOCCOCCNC(=O)CS[C@H]2CC[C@@]3(C)C(=CC[C@H]4[C@@H]5CC[C@H]([C@H](C)CCCC(C)C)[C@@]5(C)CC[C@@H]43)C2)C(N)=O)C(C)C)NC(=O)[C@H](CC(=O)O)NC(=O)[C@H](CO)NC(=O)[C@H](CCCCN)NC(=O)[C@H](CCCNC(=N)N)NC(=O)[C@H]([C@@H](C)CC)NC(=O)[C@H](Cc2ccccc2)NC1=O)[C@@H](C)CC)C(C)C` [SLI-RSV] (Ac-FDASISQVNEKINQSL[R8]FIRKSD[S5]LLHNVK([PEG16-Acetyl(2-S-cholesteryl)])-NH2; staple 17-24), the IC50 [1] is reported as 58 nM and the cytotoxicity (A549 cells) is reported as “no cytotoxicity”.

Reference: paper PMC10766962 (Nature Communications, 2024)
